Assay results from US11780839B2, “Compounds for treating Huntington's disease” (PTC THERAPEUTICS, INC., priority 2018, dated 2023).

Tested on: Endogenous Huntingtin Protein
Test: Endogenous Huntingtin Protein Assay (ELISA-based Meso Scale Discovery electrochemiluminescence)
Type: cell-based
Conditions: MSD electrochemiluminescence, Table 1
Outline: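 Sandwich MSD electrochemiluminescence immunoassay. Capture used MW1 (expanded polyglutamine) or MAB2166 antibody coated at 1 μg/mL overnight at 4 °C. Samples were bound overnight at 4 °C, then a rabbit monoclonal detection antibody and SULFO-TAG anti-rabbit, each at 0.25 μg/mL, were applied for 1 h at room temperature.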

Row | SMILES | IC50
1 | Cn1ncc2cc(-c3ccc(-c4cnc(NC5CC(C)(C)NC(C)(C)C5)nn4)c(O)c3)ccc21 [Cpd 319, 5-(1-methyl-1H-indazol-5-yl)-2-{3-[(2,2,6,6-tetramethylpiperidin-4-yl)amino]-1,2,4-triazin-6-yl}phenol] | ≤ 100 nM
2 | CC1(C)C[C@H](Nc2ncc(-c3ccc(-c4cn5ccnc5cn4)cc3O)nn2)[C@H](F)C(C)(C)N1 [Cpd 248, 2-(3-{[(3S,4S)-3-fluoro-2,2,6,6-tetramethylpiperidin-4-yl]amino}-1,2,4-triazin-6-yl)-5-(imidazo[1,2-a]pyrazin-6-yl)phenol] | ≤ 100 nM
3 | CC1CN(c2ncc(-c3ccc(-c4ccn(C)n4)cc3O)nn2)CC(C)N1 (stereo not shown) [Cpd 263, 2-[3-(3,5-dimethylpiperazin-1-yl)-1,2,4-triazin-6-yl]-5-(1-methyl-1H-pyrazol-3-yl)phenol] | 100 to 500 nM
4 | CN1CCC2(CC1)CN(c1ncc(-c3ccc(-c4ncco4)cc3O)nn1)C2 [Cpd 252, 2-[3-(7-methyl-2,7-diazaspiro[3.5]nonan-2-yl)-1,2,4-triazin-6-yl]-5-(1,3-oxazol-2-yl)phenol] | > 500 nM
5 | Cc1nnn(-c2ccc(-c3cnc(N(C)C4CC(C)(C)NC(C)(C)C4)nn3)c(O)c2)n1 [Cpd 119, 2-{3-[methyl(2,2,6,6-tetramethylpiperidin-4-yl)amino]-1,2,4-triazin-6-yl}-5-(5-methyl-2H-tetrazol-2-yl)phenol] | ≤ 100 nM
6 | [2H]C([2H])([2H])n1cc(-c2ccc(-c3cnc(N[C@H]4CC(C)(C)NC(C)(C)[C@H]4F)nn3)c(O)c2)cn1 [Cpd 377, 2-(3-{[(3S,4S)-3-fluoro-2,2,6,6-tetramethylpiperidin-4-yl]amino}-1,2,4-triazin-6-yl)-5-[1-(^2H3)methyl-1H-pyrazol-4-yl]phenol] | ≤ 100 nM
7 | CC1(C)C[C@H](Nc2ncc(-c3ccc(-c4ccc5nccn5n4)cc3O)nn2)[C@H](F)C(C)(C)N1 [Cpd 249, 2-(3-{[(3S,4S)-3-fluoro-2,2,6,6-tetramethylpiperidin-4-yl]amino}-1,2,4-triazin-6-yl)-5-(imidazo[1,2-b]pyridazin-6-yl)phenol] | ≤ 100 nM
8 | Oc1cc(-c2cn[nH]c2)ccc1-c1cnc(N[C@H]2CCNC[C@H]2F)nn1 [Cpd 345, 2-(3-{[(3R,4S)-3-fluoropiperidin-4-yl]amino}-1,2,4-triazin-6-yl)-5-(1H-pyrazol-4-yl)phenol] | 100 to 500 nM
9 | CC1(C)CC(Oc2cnc(-c3ccc(-c4cn[nH]c4)cc3O)nn2)CC(C)(C)N1 [Cpd 419, 5-(1H-pyrazol-4-yl)-2-{6-[(2,2,6,6-tetramethylpiperidin-4-yl)oxy]-1,2,4-triazin-3-yl}phenol] | ≤ 100 nM
10 | Cn1ncc2cc(-c3ccc(-c4cnc(N[C@H]5CC(C)(C)NC(C)(C)[C@H]5F)nn4)c(O)c3)cnc21 [Cpd 284] | ≤ 100 nM
11 | CC(C)(C)NC1CCN(c2ncc(-c3ccc(-c4cn[nH]c4)cc3O)nn2)CC1 [Cpd 206, 2-{3-[4-(tert-butylamino)piperidin-l-yl]-1,2,4-triazin-6-yl}-5-(1H-pyrazol-4-yl)phenol] | 1000 to 3000 nM
12 | CCC(C)(CC)NC1CCN(c2ncc(-c3ccc(-c4cn[nH]c4)cc3O)nn2)C1 (stereo not shown) [Cpd 170, 2-(3-{3-[(3-methylpentan-3-yl)amino]pyrrolidin-1-yl}-1,2,4-triazin-6-yl)-5-(1H-pyrazol-4-yl)phenol] | ≤ 100 nM
13 | Oc1cc(-c2cn[nH]c2)ccc1-c1cnc(N2CCC3(CNC3)C2)nn1 [Cpd 110, 2-[3-(2,6-diazaspiro[3.4]octan-6-yl)-1,2,4-triazin-6-yl]-5-(1H-pyrazol-4-yl)phenol] | 100 to 500 nM
14 | CN1CCC2(CC1)CN(c1ncc(-c3ccc(-n4ccnc4)cc3O)nn1)C2 [Cpd 231, 5-(1H-imidazol-1-yl)-2-[3-(7-methyl-2,7-diazaspiro[3.5]nonan-2-yl)-1,2,4-triazin-6-yl]phenol] | 100 to 500 nM
15 | Cn1cc(-c2ccc(-c3cnc(N4CCC(NC5COC5)C4)nn3)c(O)c2)cn1 (stereo not shown) [Cpd 313, 5-(1-methyl-1H-pyrazol-4-yl)-2-(3-{3-[(oxetan-3-yl)amino]pyrrolidin-1-yl}-1,2,4-triazin-6-yl)phenol] | 1000 to 3000 nM
16 | CC(C)NC1CCN(c2ncc(-c3ccc(-n4nccn4)cc3O)nn2)C1 (stereo not shown) [Cpd 264] | 100 to 500 nM
17 | CN(c1ncc(-c2ccc(-c3ccc4nccn4n3)cc2O)nn1)C1CC(C)(C)NC(C)(C)C1 [Cpd 92, 5-(imidazo[1,2-b]pyridazin-6-yl)-2-{3-[methyl(2,2,6,6-tetramethylpiperidin-4-yl)amino]-1,2,4-triazin-6-yl}phenol] | ≤ 100 nM
18 | Cc1cc(-c2ccc(-c3cnc(N(C)C4CC(C)(C)NC(C)(C)C4)nn3)c(O)c2)cnn1 [Cpd 61, 5-(6-methylpyridazin-4-yl)-2-{3-[methyl(2,2,6,6-tetramethylpiperidin-4-yl)amino]-1,2,4-triazin-6-yl}phenol] | ≤ 100 nM
19 | CC1(C)CC(Nc2ncc(-c3ccc(-n4cc(F)cn4)cc3O)nn2)CC(C)(C)N1 [Cpd 276, 5-(4-fluoro-1H-pyrazol-1-yl)-2-{3-[(2,2,6,6-tetramethylpiperidin-4-yl)amino]-1,2,4-triazin-6-yl}phenol] | ≤ 100 nM

Row | SMILES | IC50
20 | CN(c1ncc(-c2ccc(-c3cn(C)cn3)cc2O)nn1)C1CC(C)(C)NC(C)(C)C1 [Cpd 75, 5-(1-methyl-1H-imidazol-4-yl)-2-{3-[methyl(2,2,6,6-tetramethylpiperidin-4-yl)amino]-1,2,4-triazin-6-yl}phenol] | > 500 nM
21 | CN(c1ncc(-c2ccc(-c3ncn(C)n3)cc2O)nn1)C1CC(C)(C)NC(C)(C)C1 [Cpd 62, 2-{3-[methyl(2,2,6,6-tetramethylpiperidin-4-yl)amino]-1,2,4-triazin-6-yl}-5-(1-methyl-1H-1,2,4-triazol-3-yl)phenol] | 100 to 500 nM
22 | Oc1cc(-c2cn[nH]c2)ccc1-c1cnc(N2CCC3(CC2)CNC3)nn1 [Cpd 95, 2-[3-(2,7-diazaspiro[3.5]nonan-7-yl)-1,2,4-triazin-6-yl]-5-(1H-pyrazol-4-yl)phenol] | 100 to 500 nM
23 | CC1(C)C[C@H](Nc2ncc(-c3ccc(-c4ncns4)cc3O)nn2)[C@H](F)C(C)(C)N1 [Cpd 292, 2-(3-{[(3S,4S)-3-fluoro-2,2,6,6-tetramethylpiperidin-4-yl]amino}-1,2,4-triazin-6-yl)-5-(1,2,4-thiadiazol-5-yl)phenol] | ≤ 100 nM
24 | CN(c1ncc(-c2ccc(-c3nnn(C)n3)cc2O)nn1)C1CC(C)(C)NC(C)(C)C1 [Cpd 143, 2-{3-[methyl(2,2,6,6-tetramethylpiperidin-4-yl)amino]-1,2,4-triazin-6-yl}-5-(2-methyl-2H-tetrazol-5-yl)phenol] | ≤ 100 nM
25 | CN(c1ncc(-c2ccc(-c3ccnc(Cl)n3)cc2O)nn1)C1CC(C)(C)NC(C)(C)C1 [Cpd 130, 5-(2-chloropyrimidin-4-yl)-2-{3-[methyl(2,2,6,6-tetramethylpiperidin-4-yl)amino]-1,2,4-triazin-6-yl}phenol] | 100 to 500 nM
26 | CN(c1ncc(-c2ccc(-n3cnc(F)c3)cc2O)nn1)C1CC(C)(C)NC(C)(C)C1 [Cpd 50, 5-(4-fluoro-1H-imidazol-1-yl)-2-{3-[methyl(2,2,6,6-tetramethylpiperidin-4-yl)amino]-1,2,4-triazin-6-yl}phenol] | ≤ 100 nM
27 | CC(C)NC1CCN(c2ncc(-c3ccc(-c4ccc5c(cnn5C)c4)cc3O)nn2)C1 (stereo not shown) [Cpd 330, 5-(1-methyl-1H-indazol-5-yl)-2-(3-{3-[(propan-2-yl)amino]pyrrolidin-1-yl}-1,2,4-triazin-6-yl)phenol] | 1000 to 3000 nM
28 | Oc1cc(-c2cn[nH]c2)ccc1-c1cnc(N2CCC(CNC3CC3)C2)nn1 (stereo not shown) [Cpd 392, 2-(3-{3-[(cyclopropylamino)methyl]pyrrolidin-1-yl}-1,2,4-triazin-6-yl)-5-(1H-pyrazol-4-yl)phenol] | ≤ 100 nM
29 | CN1CCC2(CC1)CN(c1ncc(-c3ccc(-c4ccn(C)n4)cc3O)nn1)C2 [Cpd 233, 2-[3-(7-methyl-2,7-diazaspiro[3.5]nonan-2-yl)-1,2,4-triazin-6-yl]-5-(1-methyl-1H-pyrazol-3-yl)phenol] | 1000 to 3000 nM
30 | CN(c1ncc(-c2ccc(-c3cc(F)c4[nH]ncc4c3)cc2O)nn1)C1CC(C)(C)NC(C)(C)C1 [Cpd 383, 5-(7-fluoro-1H-indazol-5-yl)-2-{3-[methyl(2,2,6,6-tetramethylpiperidin-4-yl)amino]-1,2,4-triazin-6-yl}phenol] | ≤ 100 nM
31 | CC1(C)CC(Nc2ncc(-c3ccc(-n4ccnc4)cc3O)nn2)CC(C)(C)N1 [Cpd 273, 5-(1H-imidazol-1-yl)-2-{3-[(2,2,6,6-tetramethylpiperidin-4-yl)amino]-1,2,4-triazin-6-yl}phenol] | ≤ 100 nM
32 | Cc1cn2nc(-c3ccc(-c4cnc(N(C)C5CC(C)(C)NC(C)(C)C5)nn4)c(O)c3)ccc2n1 [Cpd 142, 5-(2-methylimidazo[1,2-b]pyridazin-6-yl)-2-{3-[methyl(2,2,6,6-tetramethylpiperidin-4-yl)amino]-1,2,4-triazin-6-yl}phenol] | ≤ 100 nM
33 | CN(c1ncc(-c2ccc(-c3ccc(Cl)nn3)cc2O)nn1)C1CC(C)(C)NC(C)(C)C1 [Cpd 123, 5-(6-chloropyridazin-3-yl)-2-{3-[methyl(2,2,6,6-tetramethylpiperidin-4-yl)amino]-1,2,4-triazin-6-yl}phenol] | ≤ 100 nM
34 | Oc1cc(-c2cn[nH]c2)ccc1-c1cnc(N2CCC(CNC3CCOCC3F)C2)nn1 (stereo not shown) [Cpd 403, 2-[3-(3-{[(3-fluorooxan-4-yl)amino]methyl}pyrrolidin-1-yl)-1,2,4-triazin-6-yl]-5-(1H-pyrazol-4-yl)phenol] | ≤ 100 nM
35 | CN(c1ncc(-c2ccc(-c3cn[nH]c3)cc2O)nn1)C1C[C@H]2CC[C@@H](C1)N2 (stereo partly drawn) [Cpd 21, 2-(3-{[(1R,3S,5S)-8-azabicyclo[3.2.1]octan-3-yl](methyl)amino}-1,2,4-triazin-6-yl)-5-(1H-pyrazol-4-yl)phenol] | ≤ 100 nM
36 | CN1CCC2(CCN(c3ncc(-c4ccc(-c5cn[nH]c5)cc4O)nn3)CC2)C1 [Cpd 183] | 100 to 500 nM
37 | Cn1ccc(-c2ccc(-c3cnc(NC4CC(C)(C)NC(C)(C)C4)nn3)c(O)c2)n1 [Cpd 253, 5-(1-methyl-1H-pyrazol-3-yl)-2-{3-[(2,2,6,6-tetramethylpiperidin-4-yl)amino]-1,2,4-triazin-6-yl}phenol] | ≤ 100 nM
